Activity calls are given as the source filed them.
Test system: not listed separately
Assay: StAR promoter reporter inhibition counter-screen, dose response, counter-screen for LRH-1 inverse agonist project, cell-based, luminescence, luciferase reporter (AID 651969)
Format: functional

SMILES | IC50
COCCn1c(C)cc(/C=C(\C#N)C(=O)OCC(=O)Nc2ccc(S(N)(=O)=O)cc2)c1C | 35.9 µM (inactive)
COc1ccc(C2(C)NC(=O)N(CC(=O)Nc3ccc(C)cc3Br)C2=O)cc1OC (configuration not stated) | 35.9 µM (inactive)
CC(O)(c1cccc(F)c1)c1nc(-c2ccc(S(C)(=O)=O)cc2)cs1 (configuration not stated) | 35.9 µM (inactive)
COC(=O)c1ccc(NC(=O)CSc2nncn2-c2cccnc2)cc1 | 35.9 µM (inactive)
N#Cc1cc([N+](=O)[O-])ccc1NC(=O)COC(=O)C1CCC(=O)N1 (configuration not stated) | 35.9 µM (inactive)
CCOc1ccc(NC(=O)CSc2nnc(C(C)C)n2CC)cc1 | 35.9 µM (inactive)
COc1ccc(S(=O)(=O)N2CCN(CC(=O)Nc3ccc(C)c(F)c3)CC2)cc1 | 35.9 µM (inactive)

Test system: not listed separately
Assay: HeLa cell cytotoxicity, dose response, cytotoxicity control for MgcRacGAP inhibitor project (AID 624300)
Format: functional

SMILES | CC50
CCCN1C(=O)/C(=C/c2cc(C)n(C)c2C)S/C1=N/c1ccc(OCC)cc1 | 100 µM (active)

Target: Steroidogenic factor 1 (Homo sapiens, UniProt Q13285)
Sequence (Q13285 whole entry): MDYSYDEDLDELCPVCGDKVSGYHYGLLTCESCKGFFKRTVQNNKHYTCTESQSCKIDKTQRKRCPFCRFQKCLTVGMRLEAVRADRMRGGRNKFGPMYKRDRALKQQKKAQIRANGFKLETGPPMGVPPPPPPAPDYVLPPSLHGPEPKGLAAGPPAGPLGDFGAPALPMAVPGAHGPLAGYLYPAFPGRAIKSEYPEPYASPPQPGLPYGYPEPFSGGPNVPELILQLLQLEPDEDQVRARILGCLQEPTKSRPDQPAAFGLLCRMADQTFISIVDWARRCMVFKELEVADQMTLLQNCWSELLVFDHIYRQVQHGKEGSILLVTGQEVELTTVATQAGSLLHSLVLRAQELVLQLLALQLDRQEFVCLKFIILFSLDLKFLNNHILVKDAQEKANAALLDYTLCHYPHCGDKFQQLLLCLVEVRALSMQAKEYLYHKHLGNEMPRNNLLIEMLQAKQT
Assay: Counterscreen for inverse agonists of the liver receptor homolog-1 (LRH-1; NR5A2): Luminescence-based cell-based high throughput dose response assay to identify inverse agonists of the Steroidogenic Factor 1 Nuclear Receptor (SF1; NR5A1).
Format: functional

SMILES | IC50
COCCn1c(C)cc(/C=C(\C#N)C(=O)OCC(=O)Nc2ccc(S(N)(=O)=O)cc2)c1C | 3.99 µM (active)
COc1ccc(C2(C)NC(=O)N(CC(=O)Nc3ccc(C)cc3Br)C2=O)cc1OC (configuration not stated) | 11.7 µM (inactive)
CC(O)(c1cccc(F)c1)c1nc(-c2ccc(S(C)(=O)=O)cc2)cs1 (configuration not stated) | 3.64 µM (active)
COC(=O)c1ccc(NC(=O)CSc2nncn2-c2cccnc2)cc1 | 14 µM (inactive)
N#Cc1cc([N+](=O)[O-])ccc1NC(=O)COC(=O)C1CCC(=O)N1 (configuration not stated) | 4.87 µM (active)
CCOc1ccc(NC(=O)CSc2nnc(C(C)C)n2CC)cc1 | 6.03 µM (active)
COc1ccc(S(=O)(=O)N2CCN(CC(=O)Nc3ccc(C)c(F)c3)CC2)cc1 | 3.05 µM (active)

Target: Nuclear receptor subfamily 5 group A member 2 (Homo sapiens, UniProt O00482);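 also: HEK293T cells transfected with LRH-1 and a StAR promoter luciferase reporter; potency for inhibitors that lower LRH-1 driven reporter light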
Sequence (O00482 whole entry): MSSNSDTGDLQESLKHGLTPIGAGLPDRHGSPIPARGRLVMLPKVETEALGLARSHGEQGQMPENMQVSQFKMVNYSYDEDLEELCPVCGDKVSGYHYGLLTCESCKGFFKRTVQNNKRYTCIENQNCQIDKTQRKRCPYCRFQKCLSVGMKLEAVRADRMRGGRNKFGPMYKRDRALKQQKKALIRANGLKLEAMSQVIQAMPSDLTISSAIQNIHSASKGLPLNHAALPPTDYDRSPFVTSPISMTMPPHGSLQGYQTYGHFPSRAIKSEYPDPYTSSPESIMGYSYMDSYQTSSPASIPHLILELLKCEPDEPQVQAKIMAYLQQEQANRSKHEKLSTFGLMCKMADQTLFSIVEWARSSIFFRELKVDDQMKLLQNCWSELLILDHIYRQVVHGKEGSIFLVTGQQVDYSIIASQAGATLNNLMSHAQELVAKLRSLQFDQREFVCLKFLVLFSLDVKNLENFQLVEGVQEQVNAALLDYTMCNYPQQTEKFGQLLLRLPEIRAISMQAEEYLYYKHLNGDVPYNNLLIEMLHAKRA
Assay: not given
Format: functional, cell-based

SMILES | IC50
COCCn1c(C)cc(/C=C(\C#N)C(=O)OCC(=O)Nc2ccc(S(N)(=O)=O)cc2)c1C | 35.9 µM (inactive)
COc1ccc(C2(C)NC(=O)N(CC(=O)Nc3ccc(C)cc3Br)C2=O)cc1OC (configuration not stated) | 35.9 µM (inactive)
CC(O)(c1cccc(F)c1)c1nc(-c2ccc(S(C)(=O)=O)cc2)cs1 (configuration not stated) | 10.3 µM (inactive)
COC(=O)c1ccc(NC(=O)CSc2nncn2-c2cccnc2)cc1 | 35.9 µM (inactive)
N#Cc1cc([N+](=O)[O-])ccc1NC(=O)COC(=O)C1CCC(=O)N1 (configuration not stated) | 6.37 µM (active)
CCOc1ccc(NC(=O)CSc2nnc(C(C)C)n2CC)cc1 | 35.9 µM (inactive)
COc1ccc(S(=O)(=O)N2CCN(CC(=O)Nc3ccc(C)c(F)c3)CC2)cc1 | 6.16 µM (active)
